US20200375929A1, “METHODS AND COMPOSITIONS FOR THE TREATMENT OF DISEASES ASSOCIATED WITH CANCER, INFLAMMATION, OR IMMUNE RESPONSE” (Washington University, priority 2017, published 2020)
Entries after “also recorded” stand apart in the source; their conditions may differ. Where a name gives a salt, the structure may show the parent alone. Where a SMILES comes first, the peptide text is derived from it. The star is where a group is joined. Cbz = O=C(OCc1ccccc1)*

Tests used:
IκBζ [1] = assay: LPS-induced Ikb-ζ protein induction in BMDMs (western blot); assay type: cell-based, mouse; settings: for effect of added agent on Ikb-ζ induction in DI-treated cells: DI 12 h plus agent; for LPS-induced Ikb-ζ induction, protein level: BMDMs treated with compound 12 h, then LPS 100 ng/ml
Experimental: (§1) BMDM were prepared from 6- to 12-week-old mice as described 1 and cultured in RMPI-1640 medium supplemented with 10% fetal bovine serum (FBS), 2 mM L-glutamine, and 100 U/mL penicillin-streptomycin and mouse recombinant M-CSF ([…], Peprotech). For experiments, cells were seeded at concentration 10^6 cells/mL in tissue culture plates of various formats. The cells were treated with DI (250 μM (unless stated otherwise), cat #592498, Sigma), DMF (50 μM (unless stated otherwise), cat #242926, Sigma), 3-(ethoxycarbonyl)but-3-enoic acid (3MI, 5 μM, Aris Pharmaceuticals Inc.), 4-ethoxy-2-methylene-4-oxobutanoic acid (MI, Aris Pharmaceuticals Inc.) for 12 h and activated with lipopolysaccharide (LPS; 100 ng/mL; E. coli 0111:B4, Sigma) for 1 h or as indicated. In some experiments cells were stimulated with combination of LPS (20 ng/mL) and IFN-γ (50 ng/mL; Peprotech). In some experiments cells were treated with α-tocopherol (AT, 10 μM; Sigma), MitoTEMPO (MT, 500 μM; Sigma), N-acetylcysteine (NAC, 1 mM, Sigma), ethylester of GSH (EtGSH; 1 mM, Santa Cruz) or buthionene sulfoximine (BSO, 500 μM, Sigma) alone or in combination with DI for 12 h. In some experiments BMDMs were treated with DI for 12 h and bafilomycin A (BafA, 100 nM, Sigma) or MG132 (10 μM, Selleckchem) were added 30 min before subsequent LPS stimulation.
(§2) Cells were lysed in RIPA Lysis Buffer System (Santa Cruz) and heat-denatured at 95° C. for 5 min in reducing sample buffer (BioRad). Proteins were separated on 4%-20% polyacrylamide gradient gels (BioRad) and transferred onto 0.45 μm pore size PVDF membranes (Millipore). Non-specific binding was blocked with 5% skim milk (or 5% BSA when phospho-proteins were analyzed), and membranes were probed with primary antibodies specific to Nrf2 (#12721), HO-1 (#70081), IκBζ (mouse specific, #93726), IκBζ(#9244), ATF3 (#D2Y5W), IRAK1 (#4504; sensitivity of IRAK1 detection diminishes upon IRAK1 K63 ubiquitination), phospho-IKK (Ser176/180, #2697), p62/SQSTM1 (#5114), phospho-eIF2α (Ser51, #9721), eIF2α (#5324) from Cell Signaling; GAPDH (sc-25778), IκBα (sc-1643), ATF3 (sc-188), SDHA (sc-166909) from Santa Cruz; NQO1 (ab28947) from Abeam, followed by incubation with anti-rabbit-HRP (1:10,000; sc-2030) or anti-mouse-HRP (1:10,000; sc-2031) from Santa Cruz and Clarity western ECL substrate (Bio-Rad). Membranes were exposed to X-Ray films (Research Products International Corp.) and developed using SRX-101A film processor (Konica Minolta). GAPDH run on the same blot was used as loading control. After scanning of original films image brightness of some blots was adjusted and bands were cropped using ImageJ. Densitometry was performed using ImageJ.

IL6, IL12, IL1b, TNFα = assay: Cytokine production in LPS-stimulated BMDMs (ELISA); assay type: cell-based, mouse; settings: then LPS; for effect of co-treatment on DI-mediated inhibition of cytokine (IL6) production: agent added simultaneously with DI; for LPS-induced cytokine production: BMDMs pretreated 12 h
Experimental: as §1
Cytokines in cell supernatants were analyzed using DuoSet® ELISA kits according to manufacturer protocol (R&D Systems). The supernatants from BMDMs were diluted 1:4, from human blood monocytes 1:3.

IκBζ [2] = assay: Ikb-ζ protein in LPS-stimulated human monocytes (western blot); assay type: cell-based; settings: human blood monocytes, DI plus agent, LPS 1 h
Experimental: as §2, with “Membranes were exposed to X-Ray films (Research Products International Corp.) and developed using SRX-101A film processor (Konica Minolta). GAPDH run on the same blot was used as loading control. After scanning of original films image brightness of some blots was adjusted and bands were cropped using ImageJ. Densitometry was performed using ImageJ.” left out
Blood from healthy donors was acquired from LRS chambers supplied by the Mississippi Valley Regional Blood Center. […] After extensive washes to allow removal of non-adherent cells, monocytes (>95% purity) were harvested, counted and 5×10^5 cells were plated per well in 24-well plates. […]

ATF3 = ATF3 protein expression (western blot); assay type: cell-based, mouse; settings: mouse macrophages and human monocytes, DI plus agent
Experimental: as §1, with “In some experiments BMDMs were treated with DI for 12 h and bafilomycin A (BafA, 100 nM, Sigma) or MG132 (10 μM, Selleckchem) were added 30 min before subsequent LPS stimulation.” left out
(§3) Cells were lysed in RIPA Lysis Buffer System (Santa Cruz) and heat-denatured at 95° C. for 5 min in reducing sample buffer (BioRad). […] Non-specific binding was blocked with 5% skim milk (or 5% BSA when phospho-proteins were analyzed), and membranes were probed with primary antibodies specific to Nrf2 (#12721), HO-1 (#70081), IκBζ (mouse specific, #93726), IκBζ(#9244), ATF3 (#D2Y5W), IRAK1 (#4504; sensitivity of IRAK1 detection diminishes upon IRAK1 K63 ubiquitination), phospho-IKK (Ser176/180, #2697), p62/SQSTM1 (#5114), phospho-eIF2α (Ser51, #9721), eIF2α (#5324) from Cell Signaling; GAPDH (sc-25778), IκBα (sc-1643), ATF3 (sc-188), SDHA (sc-166909) from Santa Cruz; NQO1 (ab28947) from Abeam, followed by incubation with anti-rabbit-HRP (1:10,000; sc-2030) or anti-mouse-HRP (1:10,000; sc-2031) from Santa Cruz and Clarity western ECL substrate (Bio-Rad). […]

HBL1 cells line (ABC) = assay: DLBCL cell viability, resazurin assay, ABC subtype; assay type: cell-based; settings: HBL1, 4 days, refreshed daily; DI 125-250 μM
[3] = test system: LY1 and LY7 (GCB) cell lines; assay: DLBCL cell viability, resazurin assay, GCB subtype; assay type: cell-based; settings: LY1 and LY7, 4 days, refreshed daily; DI 125-250 μM
Nrf2 = Nrf2 response in BMDMs (western blot, target genes); assay type: cell-based, mouse; settings: 12 h treatment
Experimental: as §1, with “In some experiments BMDMs were treated with DI for 12 h and bafilomycin A (BafA, 100 nM, Sigma) or MG132 (10 μM, Selleckchem) were added 30 min before subsequent LPS stimulation.” left out
as §3

STAT3 = STAT3 activation in LPS-stimulated BMDMs (western blot); assay type: cell-based, mouse; settings: BMDMs, 12 h pretreatment
Experimental: as §1, with “In some experiments BMDMs were treated with DI for 12 h and bafilomycin A (BafA, 100 nM, Sigma) or MG132 (10 μM, Selleckchem) were added 30 min before subsequent LPS stimulation.” left out
as §3

Structure (SMILES): CCOC(=O)CNC(=O)[C@H](CS)NC(=O)CC[C@H](N)C(=O)O [EtGSH, ethylester of GSH, reference compound]
- effect of added agent on Ikb-ζ induction in DI-treated cells (IκBζ [1]; BMDMs, LPS): restored LPS-mediated IκBζ induction
- effect of co-treatment on DI-mediated inhibition of cytokine (IL6) production (IL6, IL12, IL1b, TNFα): reversed the effect of DI
- effect of co-treatment on IκBζ induction in DI-treated cells (IκBζ [2]): restored LPS-mediated IκBζ induction
- DI-mediated ATF3 expression upon co-treatment (ATF3): efficiently decreased

Structure (SMILES): CC(=O)N[C@@H](CS)C(=O)O [NAC, N-acetylcysteine]
- effect of added agent on Ikb-ζ induction in DI-treated cells (IκBζ [1]; BMDMs, LPS): restored Ikb-ζ production; also recorded: restored LPS-mediated IκBζ induction
- effect of co-treatment on DI-mediated inhibition of cytokine (IL6) production (IL6, IL12, IL1b, TNFα): completely abrogated effect of DI when added simultaneously with DI
- effect of co-treatment on DI-mediated inhibition of cytokine (IL6) production (IL6, IL12, IL1b, TNFα; listed as N-acetylcysteine): reversed the effect of DI
- DI-mediated ATF3 expression upon co-treatment (ATF3): efficiently decreased

Structure (SMILES): CN1CCCC(CN2c3ccccc3Sc3ccccc32)C1 (stereo not shown) [Mepazine, mepazine, reference compound]
- growth / toxicity, ABC DLBCL (HBL1 cells line (ABC)): inhibited growth of HBL1
- growth / toxicity, GCB DLBCL [3]: not LY1 and LY7

Structure (SMILES): CC(C)C[C@@H](C=O)NC(=O)[C@H](CC(C)C)NC(=O)[C@H](CC(C)C)NC(=O)OCc1ccccc1 [MG132, reference compound] (Cbz-Leu-Leu-Leu-aldehyde)
- effect of added agent on Ikb-ζ induction in DI-treated cells (IκBζ [1]; BMDMs, LPS): did not affect Ikb-ζ levels; also recorded: neither rescued IκBζ induction

Structure (SMILES): COC(=O)CC(=O)OC [DM, Dimethyl malonate, reference compound]
- LPS-induced Ikb-ζ induction, protein level (IκBζ [1]): does not affect Ikbζ expression

Structure (SMILES): COC(=O)/C=C/C(=O)OC [DMF, Dimethyl fumarate, reference compound]
- Nrf2 response (Nrf2 protein, target genes) (Nrf2): triggered Nrf2 response
- LPS-induced Ikb-ζ induction, protein level (IκBζ [1]): strongly inhibited Ikb-ζ induction; also recorded: inhibited IκBζ induction
- LPS-induced cytokine production (IL6, IL12, IL1b, TNFα): inhibit IL6 but not TNF production; also recorded: selective inhibition of IL-6
- STAT3 activation (Y705 phosphorylation) (STAT3): effective to inhibit STAT3 activation

Structure (SMILES): CCCCS(=N)(=O)CCC(N)C(=O)O (stereo not shown) [BSO, buthionine sulfoximine, reference compound]
- Nrf2 response (Nrf2 protein, target genes) (Nrf2): nor trigger Nrf2 response
- LPS-induced cytokine production (IL6, IL12, IL1b, TNFα): does not inhibit cytokine production

Structure (SMILES): CO/C1=C\C(C)=C\[C@@H](C)[C@@H](O)[C@@H](C)C/C(C)=C/C=C/[C@H](OC)[C@@H]([C@@H](C)[C@@H](O)[C@H](C)[C@@]2(O)C[C@@H](O)[C@H](C)[C@@H](C(C)C)O2)OC1=O [bafilomycin A, reference compound]
- effect of added agent on Ikb-ζ induction in DI-treated cells (IκBζ [1]; BMDMs, LPS): neither rescued IκBζ induction

Structure (SMILES): C=C(CC(=O)O)C(=O)OCC [3MI, 3-(ethoxycarbonyl)but-3-enoic acid]
- LPS-induced Ikb-ζ induction, protein level (IκBζ [1]): inhibited IκBζ induction

Structure (SMILES): C=C(CC(=O)OCC)C(=O)O [MI, 4-ethoxy-2-methylene-4-oxobutanoic acid]
- LPS-induced Ikb-ζ induction, protein level (IκBζ [1]): did not
- effect on IκBζ/IL-6 in combination with BSO (IκBζ [1]; BMDMs, compound plus BSO 500 μM, LPS): unlocked the effect
